Test results published in patent publication US6953786B2, “Compositions comprising plant-derived polyphenolic compounds and inhibitors of reactive oxygen species and methods of using thereof” (The Regents of the University of California, priority 2002, dated 2005).
“Also recorded” adds a separate entry of the source. Values belong to the compound of their own block, whether it stands above or below them.

Assays:
Mia PACA-2 cells = experiment: Annexin staining (flow cytometry); assay type: cell-based, human; conditions: Mia PACA-2, 72 hours, 0-100 μM, no serum
Method: BSp73AS cells are derived from a rat pancreatic carcinoma and both Mia PACA-2 and BSp73AS cells have mutated p53 and express K-ras. Human pancreatic carcinoma cell line Mia PACA-2 and rat pancreatic carcinoma BSp73AS were cultured in Dulbecco's Modified Eagle's Medium supplemented with 10% heat inactivated FBS, penicillin G (100 U/ml) and streptomycin ([…]) in a humidified atmosphere comprising 5% (v/v) CO2. When cells were 90% confluent they were detached, washed with alternating centrifugation and resuspension, plated and incubated in the same media without FBS and with the indicated concentrations of polyphenolic compounds or vehicle for up to 96 hours. Oligonucleotide DNA fragmentation, annexin staining, and PARP proteolysis assays were conducted as follows:
Mia PACA-2 cells were cultured for 72 hours in the presence of 0, 12, 24, 50, and 100 μM rutin, quercetin, or trans-resveratrol. About 1×10^6 cells as determined with a hemocytometer were analyzed for annexin-V binding using an Annexin V-FLUOS Staining Kit (Boehringer Mannheim, Germany). […] Cells were analyzed on a FACScan flow cytometer (Becton Dickinson Immunocytometry System, San Jose, Calif.) equipped with a […] air-cooled 488 nm argon-ion laser. […]

caspase-3 = experiment: Caspase-3 activity, fluorogenic assay with DEVD-AMC; assay type: cell-based, rat; conditions: BSp73AS, up to 6 hours, 100 μM, no serum (FIGS. 6B, 6C)
Method: To determine whether a polyphenolic compound activates caspase-3 activity in a time-dependent manner, the following assay was conducted. BSp73AS cells were cultured for 0, 1, 3, and 6 hours and Mia PACA-2 cells were cultured in the absence of serum or growth factors for 0, 1, 4, 6, and 24 hours in the presence of 100 μM or quercetin, trans-resveratrol, rutin, or control. Caspase-3 activity was measured in cell lysates with a fluorogenic assay using DEVD-AMC as a substrate. The results were normalized to the DEVDase activity in untreated cells.
To determine whether quercetin activates caspase-3 activity in a dose-dependent manner, the following assay was conducted. Cells were cultured for 6 hours in the absence of serum or growth factors in the presence of 0, 10, 20, 50, and 100 μM of quercetin. Caspase-3 activity was measured in cell lysates with a fluorogenic assay using DEVD-AMC as a substrate. The results were normalized to the DEVDase activity in untreated cells.

BSp73AS cells = experiment: Oligonucleosomal DNA fragmentation (agarose gel); assay type: cell-based, rat; conditions: 6 hours, 100 μM, no serum
Method: To confirm the apoptosis in vivo results, the effects of quercetin, rutin, and trans-resveratrol in other apoptosis assays in Mia PACA-2 cells and BSp73AS cells in culture were conducted. BSp73AS cells are derived from a rat pancreatic carcinoma and both Mia PACA-2 and BSp73AS cells have mutated p53 and express K-ras. Human pancreatic carcinoma cell line Mia PACA-2 and rat pancreatic carcinoma BSp73AS were cultured in Dulbecco's Modified Eagle's Medium supplemented with 10% heat inactivated FBS, penicillin G (100 U/ml) and streptomycin ([…]) in a humidified atmosphere comprising 5% (v/v) CO2. When cells were 90% confluent they were detached, washed with alternating centrifugation and resuspension, plated and incubated in the same media without FBS and with the indicated concentrations of polyphenolic compounds or vehicle for up to 96 hours. Oligonucleotide DNA fragmentation, annexin staining, and PARP proteolysis assays were conducted as follows: BSp73AS pancreatic cancer cells were cultured for 6 hours in the presence or absence of 100 μM of rutin, quercetin, or trans-resveratrol. DNA was isolated as described by Gukovskaya AS, et al. (1997) Clin Invest 100: 1853-1862, which is herein incorporated by reference. […]

- caspase-3 activation (caspase-3): caused caspase-3 activation
SMILES: Oc1ccc(/C=C/c2cc(O)cc(O)c2)cc1 [trans-resveratrol]
- annexin staining (apoptosis) (Mia PACA-2 cells): increase annexin staining
- oligonucleosomal DNA fragmentation (BSp73AS cells): caused an increase

SMILES: O=c1c(O)c(-c2ccc(O)c(O)c2)oc2cc(O)cc(O)c12 [quercetin]
- annexin staining (apoptosis) (Mia PACA-2 cells): increase annexin staining; also recorded: more potent in causing apoptosis than trans-resveratrol
- caspase-3 activation (caspase-3): caused caspase-3 activation
- oligonucleosomal DNA fragmentation (BSp73AS cells): caused an increase
